Assay results reported in US20130274254A1, “INHIBITORS OF CYTOCHROME P450 (CYP3A4)” (Gilead Sciences, Inc., priority 2010, published 2013).
pIC50: −log10 of the molar value.

Legend:
CYP3A4 [1] = target: T1, CYP3A4 (Homo sapiens, UniProt P08684); assay: CYP3A inhibition assay, midazolam 1'-hydroxylase activity in pooled human hepatic microsomal fraction; assay type: biochemical; conditions: pooled human liver microsomes, pH 7.4, probe midazolam (1'-hydroxylation), 0.25 mg/mL microsomal protein
Procedure: Pooled (n≧15 donors) human hepatic microsomal fraction was obtained from BD-Gentest (Woburn, Mass.) who also supplied hydroxy-terfenadine, 4′-hydroxydiclofenac and NADPH regenerating system. Ritonavir was prepared from commercial Norvir® oral solution (Abbott Laboratories, Abbott Park, Ill.). Other reagents were from Sigma-Aldrich (St. Louis, Mo.) and included terfenadine, fexofenadine, BRL 15572, diclofenac and mefenamic acid. […]
(§1) IC50 values (the concentration of inhibitor reducing CYP3A activity by 50%) were calculated by non-linear regression using GraphPad Prism 4.0 software and a sigmoidal model.
[…] For testosterone hydroxylase activity the final microsomal protein concentration was 0.5 mg/mL, the substrate concentration was 50 μM and the LC-MS internal standard was D7-labeled 6β-hydroxytestosterone. After incubation at 37° C. for 5 minutes, metabolic reactions were terminated by treatment with quench solution containing the appropriate internal standard and were subsequently centrifuged before aliquots of the supernatant were removed and diluted with 0.1% (v/v) formic acid for LC-MS analysis.
(§2) For LC-MS analysis the column was a Phenomenex Synergi Max RP 4 μm column (50×2.0 mm) and the injection volume was 5 μL. The MS/MS ion current metabolite/internal standard peak area ratios (PAR) were measured on an Applied Biosystems SciEx API4000 triple quadrupole mass spectrometer coupled to a Leap CTC PAL autosampler with a 20 μL loop and a Shimadzu LC pump with a 25 μL mixer. The initial mobile phase consisted of 94.9% water, 0.1% formic acid, and 5% acetonitrile (v/v/v) pumped at 0.5 mL/min. After 0.5 min the acetonitrile concentration was increased to 30% over 0.5 min. The acetonitrile concentration was then further increased to 100% over 0.5 min and held for 1.3 min, after which the column was re equilibrated at the initial conditions for 1.2 min. Rates of metabolite formation were determined from standard curves using PAR determined with authentic metabolite standards.

CYP3A4 [2] = target: T1, CYP3A4; assay: CYP3A inhibition assay, testosterone 6β-hydroxylase activity in pooled human hepatic microsomal fraction
Procedure: Pooled (n≧15 donors) human hepatic microsomal fraction was obtained from BD-Gentest (Woburn, Mass.) who also supplied hydroxy-terfenadine, 4′-hydroxydiclofenac and NADPH regenerating system. Ritonavir was prepared from commercial Norvir® oral solution (Abbott Laboratories, Abbott Park, Ill.). Other reagents were from Sigma-Aldrich (St. Louis, Mo.) and included terfenadine, fexofenadine, BRL 15572, diclofenac and mefenamic acid.
Incubations were performed in duplicate in 50 mM potassium phosphate buffer, pH 7.4 with NADPH regenerating system used as described by the manufacturer. […] The final substrate concentrations used were equal to the apparent Km values for the activities determined under the same conditions. Inhibitors were dissolved in DMSO, and the final concentration of DMSO, from both substrate and inhibitor vehicles, was 1% (v/v). Incubations were performed at 37° C. with shaking and were initiated by addition of substrate. Aliquots were then removed at 0, 7 and 15 minutes. Samples were quenched by treatment with an acetonitrile, formic acid, water (94.8%/0.2%/5%, v/v/v) mixture containing internal standard. Precipitated protein was removed by centrifugation at 3000 rpm for 10 min and aliquots of the supernatant were then subjected to LC-MS analysis.
The LC-MS system consisted of a Waters Acquity UPLC, with a binary solvent manager and a refrigerated (8° C.) sample organizer and sample manager, interfaced to a Micromass Quattro Premier tandem mass spectrometer operating in electrospray ionization mode. The column was a Waters Acquity UPLC BEH C18 2.1×50 mm, 1.7 μm pore size. Mobile phases consisted of mixtures of acetonitrile, formic acid and water, the composition for mobile phase A being 1%/0.2%/98.8% (v/v/v) and that for mobile phase B being 94.8%/0.2%/5% (v/v/v). The injection volumes were 5 μL and the flow rate was 0.8 mL/min. Concentrations of metabolites were determined by reference to standard curves generated with authentic analytes under the same conditions as the incubations.
as §1
For midazolam hydroxylase determination the final concentrations of microsomal protein and […] substrate were 0.25 mg/mL and 2.5 μM, respectively, and the LC-MS internal standard was 1α-hydroxytriazolam. For testosterone hydroxylase activity the final microsomal protein concentration was 0.5 mg/mL, the substrate concentration was 50 μM and the LC-MS internal standard was D7-labeled 6β-hydroxytestosterone. After incubation at 37° C. for 5 minutes, metabolic reactions were terminated by treatment with quench solution containing the appropriate internal standard and were subsequently centrifuged before aliquots of the supernatant were removed and diluted with 0.1% (v/v) formic acid for LC-MS analysis.
as §2

T1 sequence (P08684 2-503): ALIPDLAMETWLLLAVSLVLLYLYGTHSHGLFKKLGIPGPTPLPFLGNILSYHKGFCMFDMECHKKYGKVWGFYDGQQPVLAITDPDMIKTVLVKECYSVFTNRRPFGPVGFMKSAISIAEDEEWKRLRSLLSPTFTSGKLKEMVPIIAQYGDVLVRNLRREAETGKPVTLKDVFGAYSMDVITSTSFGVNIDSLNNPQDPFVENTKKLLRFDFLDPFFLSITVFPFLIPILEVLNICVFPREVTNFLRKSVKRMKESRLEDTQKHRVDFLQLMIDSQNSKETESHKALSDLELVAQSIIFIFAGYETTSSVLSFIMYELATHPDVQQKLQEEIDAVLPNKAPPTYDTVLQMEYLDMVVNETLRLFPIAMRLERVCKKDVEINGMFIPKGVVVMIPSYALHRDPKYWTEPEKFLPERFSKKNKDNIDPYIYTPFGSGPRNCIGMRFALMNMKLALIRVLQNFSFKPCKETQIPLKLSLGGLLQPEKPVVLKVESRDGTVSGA

IC50 at 5 min (CYP3A4 [1]) [µM]	pIC50 (CYP3A4 [2])	Structure (SMILES)
0.14	6.51	CC(C)N(C)C(=O)N[C@@H](CCN1CCOCC1)C(=O)N[C@H](CC[C@H](Cc1ccccc1)NC(=O)OCc1cncs1)Cc1ccccc1 [Compound 7]
0.26	6.25	COCCN(C)C(=O)N[C@@H](CCN1CCOCC1)C(=O)N[C@H](CC[C@H](Cc1ccccc1)NC(=O)OCc1cncs1)Cc1ccccc1 [Compound 21]
0.13	6.52	CN(Cc1ccccc1)C(=O)N[C@@H](CCN1CCOCC1)C(=O)N[C@H](CC[C@H](Cc1ccccc1)NC(=O)OCc1cncs1)Cc1ccccc1 [Compound 17]
0.18	6.46	O=C(NC1CCCCC1)N[C@@H](CCN1CCOCC1)C(=O)N[C@H](CC[C@H](Cc1ccccc1)NC(=O)OCc1cncs1)Cc1ccccc1 [Compound 18]
0.41	5.96	CN1CCN(C(=O)N[C@@H](CCN2CCOCC2)C(=O)N[C@H](CC[C@H](Cc2ccccc2)NC(=O)OCc2cncs2)Cc2ccccc2)CC1 [Compound 15]
0.11	6.60	CC(C)[C@H](NC(=O)N1CCOCC1)C(=O)N[C@H](CC[C@H](Cc1ccccc1)NC(=O)OCc1cncs1)Cc1ccccc1 [Compound 27]
0.11	6.44	CN(Cc1ccc(F)cc1)C(=O)N[C@@H](CCN1CCOCC1)C(=O)N[C@H](CC[C@H](Cc1ccccc1)NC(=O)OCc1cncs1)Cc1ccccc1 [Compound 20]
0.13	6.54	CN(Cc1ccco1)C(=O)N[C@@H](CCN1CCOCC1)C(=O)N[C@H](CC[C@H](Cc1ccccc1)NC(=O)OCc1cncs1)Cc1ccccc1 [Compound 60]
0.19	6.28	CN(Cc1ccccn1)C(=O)N[C@@H](CCN1CCOCC1)C(=O)N[C@H](CC[C@H](Cc1ccccc1)NC(=O)OCc1cncs1)Cc1ccccc1 [Compound 61]
0.15	6.82	CC(=O)NCC[C@H](NC(=O)N(C)C(C)C)C(=O)N[C@H](CC[C@H](Cc1ccccc1)NC(=O)OCc1cncs1)Cc1ccccc1 [Compound 35]
0.22	6.49	O=C(N[C@H](CC[C@H](Cc1ccccc1)NC(=O)[C@H](CCN1CCOCC1)NC(=O)N1CCCC1)Cc1ccccc1)OCc1cncs1 [Compound 10]
0.18	6.68	O=C(N[C@H](CC[C@H](Cc1ccccc1)NC(=O)[C@@H]1C[C@@H](O)CN1C(=O)OCc1ccccc1)Cc1ccccc1)OCc1cncs1 [Compound 67]

Second part, the molecule before the results:

Structure (SMILES)	IC50 at 5 min (CYP3A4 [1]) [µM]	pIC50 (CYP3A4 [2])
CN(C)C(=O)N[C@@H](CCN1CCOCC1)C(=O)N[C@H](CC[C@H](Cc1ccccc1)NC(=O)OCc1cncs1)Cc1ccccc1 [Compound 16]	0.15	6.15
CC(C)(C)OC(=O)N[C@@H](CCN1CCOCC1)C(=O)N[C@H](CC[C@H](Cc1ccccc1)NC(=O)OCc1cncs1)Cc1ccccc1 [Compound 54]	< 0.1	6.39
CN(C(=O)N[C@@H](CCN1CCOCC1)C(=O)N[C@H](CC[C@H](Cc1ccccc1)NC(=O)OCc1cncs1)Cc1ccccc1)C(C)(C)C [Compound 11]	0.13	6.38
CC(C)c1nc(CN(C)C(=O)N[C@H](C(=O)N[C@H](CC[C@H](Cc2ccccc2)NC(=O)CCc2cccs2)Cc2ccccc2)C(C)C)cs1 [Compound 89]	0.7	5.64
CC(=O)NCC[C@H](NC(=O)N1CCCCC1)C(=O)N[C@H](CC[C@H](Cc1ccccc1)NC(=O)OCc1cncs1)Cc1ccccc1 [Compound 40]	0.1	6.66
CC(C)CN(C)C(=O)N[C@@H](CCN1CCOCC1)C(=O)N[C@H](CC[C@H](Cc1ccccc1)NC(=O)OCc1cncs1)Cc1ccccc1 [Compound 14]	0.13	6.49
CC(C)N(C)C(=O)N[C@H](CCN1CCOCC1)C(=O)N[C@H](CC[C@H](Cc1ccccc1)NC(=O)OCc1cncs1)Cc1ccccc1 [Compound 53]	< 0.1	6.59
CC(C)c1nc(CN(C)C(=O)N[C@H](C(=O)N[C@H](CC[C@H](Cc2ccccc2)NC(=O)OCc2cccnc2)Cc2ccccc2)C(C)C)cs1 [Compound 73]	0.16	6.35
CC(=O)NCC[C@H](NC(=O)N1CCCCC1)C(=O)N[C@@H](CC[C@@H](Cc1ccccc1)NC(=O)OCc1cncs1)Cc1ccccc1 [Compound 41]	< 0.1	6.40
O=C(N[C@H](CC[C@H](Cc1ccccc1)NC(=O)[C@H](CCN1CCOCC1)NC(=O)N1CCOCC1)Cc1ccccc1)OCc1cncs1 [Compound 12]	0.2	6.19
CC(C)c1nc(CN(C)C(=O)N[C@H](C(=O)N[C@H](CC[C@H](Cc2ccccc2)NC(=O)OC(C)(C)C)Cc2ccccc2)C(C)C)cs1 [Compound 70]	0.72	5.82
CC(C)[C@H](NC(=O)N(C)C(C)C)C(=O)N[C@H](CC[C@H](Cc1ccccc1)NC(=O)OCc1cncs1)Cc1ccccc1 [Compound 29]	< 0.1	6.49
Cc1ncsc1CCC(=O)N[C@H](CC[C@H](Cc1ccccc1)NC(=O)[C@@H](NC(=O)N(C)Cc1csc(C(C)C)n1)C(C)C)Cc1ccccc1 [Compound 90]	0.19	6.35
CC(C)[C@H](NC(=O)N1CCN(C)CC1)C(=O)N[C@H](CC[C@H](Cc1ccccc1)NC(=O)OCc1cncs1)Cc1ccccc1 [Compound 28]	0.19	6.33
CC(=O)NCC[C@H](NC(=O)N(C)C(C)C)C(=O)N[C@@H](CC[C@@H](Cc1ccccc1)NC(=O)OCc1cncs1)Cc1ccccc1 [Compound 36]	< 0.1	6.62
CN(Cc1cccnc1)C(=O)N[C@@H](CCN1CCOCC1)C(=O)N[C@H](CC[C@H](Cc1ccccc1)NC(=O)OCc1cncs1)Cc1ccccc1 [Compound 59]	< 0.1	6.35
CN(C(=O)N[C@@H](CCN1CCOCC1)C(=O)N[C@H](CC[C@H](Cc1ccccc1)NC(=O)OCc1cncs1)Cc1ccccc1)C1CCCCC1 [Compound 19]	0.18	6.55
